Results on 16 compounds are retold here after patent publication US20240150339A1, “Compounds and Their Use as PDE4 Activators” (Mironid Limited, priority 2021, published 2024).

The test system of this test is m-IMCD3 cells. Description: Inhibition of PGE2-stimulated in vitro cyst formation in 3D culture of m-IMCD3 cells. The class given is cell-based, mouse. Particulars: Mus musculus, mIMCD3, 144 h; 10 μM test compound; mean cyst area (%) compared to 100% for (DMSO + PGE2) and 0% for DMSO control; 100 nM PGE2; 6 days; read-out: % Cyst area after incubation with 10 μM test compound. The protocol: HEK 293 and MDCK cells (Public Health England, Cell Culture Collections) were maintained in Dulbecco's Modified Eagle's Medium (DMEM) supplemented with 10% (v/v) fetal bovine serum (FBS) (Seralab), 2 mM L-glutamine and 100 U/ml penicillin streptomycin cocktail (ThermoFisher); termed complete media. Clonal HEK 293 cell lines were maintained in complete media supplemented with 0.6 mg/mL G418 (Enzo Life Sciences). Mouse inner medullary collecting duct (m-IMCD3) cells [American Type Culture Collection (ATCC)] were maintained in media consisting of DMEM/Hams F-12 50/50 Mix (DMEM F12; Corning) supplemented with penicillin streptomycin cocktail (100 U/ml) and FBS (10% v/v) (DMEM F12-10% FBS).
The mouse Inner Medullary Collecting Duct cell line (m-IMCD3) spontaneously forms cystic spheroids in 3D culture with a Type 1 collagen/Matrigel extracellular matrix. This process can be stimulated with agents which raise intracellular cAMP, such as PGE2, and is used as an in vitro model for the formation of cystic structures in the kidneys of patients with ADPKD.
Rat Collagen I (Fisher Scientific) is prepared on ice by neutralising with 1M NaOH and diluting with a 2×volume of DMEM/F12+10% FBS for coating plate (coating mix) and a 2.2 volume of DMEM/F12+10% FBS for cell plating (plating mix). This is mixed 1:1.1 with ice cold Matrigel (Corning) for coating plates (coating mix), and 1:0.95 with Matrigel for cell plating (plating mix).
The assay is conducted in the wells of a 96-well plate culture dish using a total volume of 130 μl of collagen/Matrigel/DMEM F12-10% FBS suspension in growth media for each matrix plug per individual well. Initially, 30 μl of collagen/Matrigel/DMEM F12-10% FBS (coating mix) is added into the well of a 96 well plate and the collagen is set to a gel by incubating at 37° C. for at least 15 minutes. A second layer of 100 μl collagen/Matrigel suspension (plating mix) containing m-IMCD3 cells (2.75×10^6 m-IMCD3 cells per 96-well plate) is layered over the coating mix and the collagen/Matrigel/cell mix again set to a gel by incubating at 37° C. Cell cultures are maintained at 37° C. in an atmosphere of 5% CO2, 95% air.
Between 18 and 24h after plating, test compound(s) as DMSO stock solutions [0.1% (v/v) final DMSO concentration] and PGE2 (100 nM final concentration) in DMEM F12-10% FBS are added in quadruplicate wells per condition. Media, togetherwith the test compound and PGE2 are replenished after 2 or 3 days. After 6 days of culture z stack images of the wells are captured using the Nikon Eclipse Ti2-E microscope. Nikon General Analysis software is used to measure the following parameters in each well: the mean cyst area, the number of cysts, and the total cyst area.
PDE4 long form activators inhibited in vitro cyst formation in m-IMCD3 cells. Data are shown in FIG. 2 and Table 5 as mean cyst area (%), compared to 100% for (DMSO+PGE2) and 0% for DMSO control.
With `Cc1ncccc1-c1nc2ccc(C(=O)NCc3ccc(F)cc3)cc2s1` [Example 2, N-(4-fluorobenzyl)-2-(2-methylpyridin-3-yl)benzo[d]thiazole-6-carboxamide], the activity at 10 µM is -9%.
With `CCN1CCN(c2nc3c(OC)cc(C(=O)NC4CCCC4)cc3s2)CC1` [Example 222, N-cyclopentyl-2-(4-ethylpiperazin-1-yl)-4-methoxybenzo[d]thiazole-6-carboxamide] the figure was 1%; with `O=C(NC1CCCC1)c1ccc2nc(C3CCNCC3)sc2c1` [Example 134, N-cyclopentyl-2-(piperidin-4-yl)benzo[d]thiazole-6-carboxamide], 16%.
Regarding `Cc1ncccc1-c1nc2ccc(C(=O)NCc3cccc(F)c3)cc2s1` [Example 4, N-(3-fluorobenzyl)-2-(2-methylpyridin-3-yl)benzo[d]thiazole-6-carboxamide], the activity at 10 µM amounted to 6%.
With `CCN1CCC(c2nc3ccc(C(=O)N[C@H]4CCc5ccccc54)c(C)c3s2)CC1` [Example 196, (S)-N-(2,3-dihydro-1H-inden-1-yl)-2-(1-ethylpiperidin-4-vy)-7-methylbenzo[d]thiazole-6-carboxamide] the figure was 10%.
In the case of `O=C(NC1CCCC1)c1ccc2nc(N3CC4(CNC4)C3)sc2c1` [Example 255, N-cyclopentyl-2-(2,6-diazaspiro[3.3]heptan-2-yl)benzo[d]thiazole-6-carboxamide], the activity at 10 µM was 11%.
`O=C(N[C@@H]1c2ccccc2C[C@@H]1O)c1ccc2nc(C3CCNCC3)sc2c1` [Example 130, N-((1R,2S)-2-hydroxy-2,3-dihydro-1H-inden-1-yl)-2-(piperidin-4-yl)benzo[d]thiazole-6-carboxamide]: the activity at 10 µM was -2%.
As for `COc1cc2nc(N3CCNCC3)sc2cc1C(=O)N[C@H]1CCc2ccccc21` [Example 224, (S)-N-(2,3-dihydro-1H-inden-1-yl)-5-methoxy-2-(piperazin-1-yl)benzo[d]thiazole-6-carboxamide], the activity at 10 µM amounted to 8%.
Take `CC(C)OCCNC(=O)c1ccc2nc(N3C4CCC3CNC4)sc2c1` [Example 278, 2-(3,8-diazabicyclo[3.2.1]octan-8-yl)-N-(2-isopropoxyethyl)benzo[d]thiazole-6-carboxamide]: the activity at 10 µM came to 18%.
For the compound `COc1ccc(CNC(=O)c2ccc3nc(-c4cccnc4C)sc3c2)cc1` [Example 3, N-(4-methoxybenzyl)-2-(2-methylpyridin-3-yl)benzo[d]thiazole-6-carboxamide], the activity at 10 µM was determined as 23%.
With `O=C(N[C@H]1CCOc2ccccc21)c1ccc2nc(N3CCN(CCO)CC3)sc2c1` [Example 120, (S)-N-(chroman-4-yl)-2-(4-(2-hydroxyethyl)piperazin-1-yl)benzo[d]thiazole-6-carboxamide] the figure was -5%; with `O=C(N[C@H]1CCOc2ccccc21)c1ccc2nc(N3CCOCC3)sc2c1` [Example 69, (S)-N-(chroman-4-yl)-2-morpholinobenzo[d]thiazole-6-carboxamide], 20%; with `CC(C)(C)N1CCN(c2nc3ccc(C(=O)N[C@H]4CCOc5ccccc54)cc3s2)CC1` [Example 75, (S)-2-(4-(tert-butyl)piperazin-1-yl)-N-(chroman-4-yl)benzo[d]thiazole-6-carboxamide], -1%.
With `Cc1cc(C(=O)N[C@H]2CCOc3ccccc32)cc2sc(C3CCNCC3)nc12` [Example 186, (S)-N-(chroman-4-yl)-4-methyl-2-(piperidin-4-yl)benzo[d]thiazole-6-carboxamide] the figure was 4%; with `O=C(N[C@H]1CCc2cccc(F)c21)c1ccc2nc(N3CCNCC3)sc2c1` [Example 98, (S)-N-(7-fluoro-2,3-dihydro-1H-inden-1-yl)-2-(piperazin-1-yl)benzo[d]thiazole-6-carboxamide], 27%; with `Cc1cncc(-c2nc3ccc(C(=O)NCc4ccccc4)cc3s2)c1` [Example 30, N-benzyl-2-(5-methylpyridin-3-yl)benzo[d]thiazole-6-carboxamide], 21%.
